Test results taken from ChEMBL document CHEMBL3616412, “Re-engineering nalidixic acid's chemical scaffold: A step towards the development of novel anti-tubercular and anti-bacterial leads for resistant pathogens” (2015).
Values after ≈ are worked out from the molar mass of the structure shown.

What was measured:
[1] = test system: Salmonella typhi; assay: Antibacterial activity against Salmonella typhi after 24 hrs by agar dilution method; assay type: functional, Salmonella enterica subsp. enterica serovar Typhi; conditions: Salmonella enterica
[2] = test system: Salmonella typhi; assay: Antibacterial activity against Salmonella typhi after 5 days by microdilution method; assay type: functional, Salmonella enterica subsp. enterica serovar Typhi; conditions: Salmonella enterica, 120 h
[3] = test system: Escherichia coli; assay: Antibacterial activity against Escherichia coli after 24 hrs by agar dilution method; assay type: functional
[4] = test system: Pseudomonas aeruginosa; assay: Antibacterial activity against Pseudomonas aeruginosa after 5 days by microdilution method; assay type: functional; conditions: 120 h
[5] = test system: Pseudomonas aeruginosa; assay: Antibacterial activity against Pseudomonas aeruginosa after 24 hrs by agar dilution method; assay type: functional
[6] = test system: Proteus vulgaris; assay: Antibacterial activity against Proteus vulgaris at 10 ug/disk after 24 hrs by agar plate disk diffusion method; assay type: functional; conditions: read-out: DIZ
[7] = test system: Staphylococcus aureus; assay: Antibacterial activity against Staphylococcus aureus at 10 ug/disk after 24 hrs by agar plate disk diffusion method; assay type: functional; conditions: read-out: DIZ
[8] = test system: Salmonella paratyphi; assay: Antibacterial activity against Salmonella paratyphi after 24 hrs by agar dilution method; assay type: functional, Salmonella enterica subsp. enterica serovar Paratyphi A; conditions: Salmonella enterica
[9] = test system: Salmonella typhi; assay: Antibacterial activity against Salmonella typhi at 10 ug/disk after 24 hrs by agar plate disk diffusion method; assay type: functional, Salmonella enterica subsp. enterica serovar Typhi; conditions: Salmonella enterica, read-out: DIZ
[10] = test system: Proteus vulgaris; assay: Antibacterial activity against Proteus vulgaris after 24 hrs by agar dilution method; assay type: functional
[11] = test system: Escherichia coli; assay: Antibacterial activity against Escherichia coli after 5 days by microdilution method; assay type: functional; conditions: 120 h
[12] = test system: Salmonella paratyphi; assay: Antibacterial activity against Salmonella paratyphi after 5 days by microdilution method; assay type: functional, Salmonella enterica subsp. enterica serovar Paratyphi A; conditions: Salmonella enterica, 120 h
[13] = test system: Proteus vulgaris; assay: Antibacterial activity against Proteus vulgaris after 5 days by microdilution method; assay type: functional; conditions: 120 h
[14] = test system: Escherichia coli; assay: Antibacterial activity against Escherichia coli at 10 ug/disk after 24 hrs by agar plate disk diffusion method; assay type: functional; conditions: read-out: DIZ
[15] = test system: Staphylococcus aureus; assay: Antibacterial activity against Staphylococcus aureus after 5 days by microdilution method; assay type: functional; conditions: 120 h
[16] = test system: Salmonella paratyphi; assay: Antibacterial activity against Salmonella paratyphi at 10 ug/disk after 24 hrs by agar plate disk diffusion method; assay type: functional, Salmonella enterica subsp. enterica serovar Paratyphi A; conditions: Salmonella enterica, read-out: DIZ
[17] = test system: Mycobacterium tuberculosis; assay: Antitubercular activity against Mycobacterium tuberculosis H37Rv ATCC 27294 after 5 days by micro alamar blue assay; assay type: functional
[18] = test system: Pseudomonas aeruginosa; assay: Antibacterial activity against Pseudomonas aeruginosa at 10 ug/disk after 24 hrs by agar plate disk diffusion method; assay type: functional; conditions: read-out: DIZ
[19] = test system: Staphylococcus aureus; assay: Antibacterial activity against Staphylococcus aureus after 24 hrs by agar dilution method; assay type: functional

| Compound | MIC [1] [µg/mL] | MIC [2] [µg/mL] | MIC [3] [µg/mL] | MIC [4] [µg/mL] | MIC [5] [µg/mL] | zone of inhibition at 10 µg/disc [6] [mm] | zone of inhibition at 10 µg/disc [7] [mm] | MIC [8] [µg/mL] | zone of inhibition at 10 µg/disc [9] [mm] | MIC [10] [µg/mL] | MIC [11] [µg/mL] | MIC [12] [µg/mL] | MIC [13] [µg/mL] | zone of inhibition at 10 µg/disc [14] [mm] | MIC [15] [µg/mL] | zone of inhibition at 10 µg/disc [16] [mm] | inhibition (INH) [17] [%] | zone of inhibition at 10 µg/disc [18] [mm] | MIC [19] [µg/mL] |
| --- | --- | --- | --- | --- | --- | --- | --- | --- | --- | --- | --- | --- | --- | --- | --- | --- | --- | --- | --- |
| CCOC(=O)c1cn(CC)c2nc(C)ccc2c1=O | 1 (≈ 3.84 µM) | 1 (≈ 3.84 µM) | 0.5 (≈ 1.92 µM) | 2 (≈ 7.68 µM) | 2 (≈ 7.68 µM) | 23 | 24 | 1 (≈ 3.84 µM) | 21 | 0.5 (≈ 1.92 µM) | 0.5 (≈ 1.92 µM) | 1 (≈ 3.84 µM) | 0.5 (≈ 1.92 µM) | 22 | 0.25 (≈ 0.96 µM) | 19 | 78 | 17 | 0.25 (≈ 0.96 µM) |
| CCn1cc(C(=O)NNC(N)=S)c(=O)c2ccc(C)nc21 | 0.5 (≈ 1.64 µM) | 0.5 (≈ 1.64 µM) | 0.12 (≈ 0.393 µM) | 0.25 (≈ 0.819 µM) | 0.25 (≈ 0.819 µM) | 30 | 28 | 0.5 (≈ 1.64 µM) | 23 | 0.12 (≈ 0.393 µM) | 0.12 (≈ 0.393 µM) | 0.5 (≈ 1.64 µM) | 0.12 (≈ 0.393 µM) | 29 | 0.12 (≈ 0.393 µM) | 23 | 84 | 26 | 0.12 (≈ 0.393 µM) |
| CCn1cc(C(=O)NN)c(=O)c2ccc(C)nc21 | 0.5 (≈ 2.03 µM) | 0.5 (≈ 2.03 µM) | 0.06 (≈ 0.244 µM) | 0.25 (≈ 1.02 µM) | 0.25 (≈ 1.02 µM) | 34 | 28 | 0.5 (≈ 2.03 µM) | 28 | 0.06 (≈ 0.244 µM) | 0.06 (≈ 0.244 µM) | 0.5 (≈ 2.03 µM) | 0.06 (≈ 0.244 µM) | 39 | 0.12 (≈ 0.487 µM) | 20 | 80 | 39 | 0.12 (≈ 0.487 µM) |
| CCn1cc(C(=O)NNC(=S)/N=c2\[nH]c3ccccc3[nH]c2=O)c(=O)c2ccc(C)nc21 | 2 (≈ 4.45 µM) | 2 (≈ 4.45 µM) | 2 (≈ 4.45 µM) | > 4 | > 4 | 18 | 20 | 2 (≈ 4.45 µM) | 22 | 2 (≈ 4.45 µM) | 2 (≈ 4.45 µM) | 2 (≈ 4.45 µM) | 2 (≈ 4.45 µM) | 19 | 1 (≈ 2.22 µM) | 18 | 93 | 19 | 1 (≈ 2.22 µM) |
| CCn1cc(C(=O)N/N=c2\[nH]c3ccccc3[nH]c2=O)c(=O)c2ccc(C)nc21 | > 4 | > 4 | 2 (≈ 5.12 µM) | > 4 | > 4 | 20 | 21 | > 4 | 14 | 2 (≈ 5.12 µM) | 2 (≈ 5.12 µM) | > 4 | 2 (≈ 5.12 µM) | 22 | 1 (≈ 2.56 µM) | 15 | 91 | 17 | 1 (≈ 2.56 µM) |
| CCn1cc(-c2n[nH]c(=S)n2-c2nc3ccccc3[nH]c2=O)c(=O)c2ccc(C)nc21 | 1 (≈ 2.32 µM) | 1 (≈ 2.32 µM) | 0.06 (≈ 0.139 µM) | 1 (≈ 2.32 µM) | 1 (≈ 2.32 µM) | 30 | 30 | 1 (≈ 2.32 µM) | 22 | 0.5 (≈ 1.16 µM) | 0.06 (≈ 0.139 µM) | 1 (≈ 2.32 µM) | 0.5 (≈ 1.16 µM) | 28 | 0.06 (≈ 0.139 µM) | 23 | 77 | 29 | 0.06 (≈ 0.139 µM) |
| CCn1cc(-c2nn(-c3nc4ccccc4[nH]c3=O)c(=S)o2)c(=O)c2ccc(C)nc21 | 1 (≈ 2.31 µM) | 1 (≈ 2.31 µM) | 0.5 (≈ 1.16 µM) | 1 (≈ 2.31 µM) | 1 (≈ 2.31 µM) | 26 | 32 | 1 (≈ 2.31 µM) | 23 | 1 (≈ 2.31 µM) | 0.5 (≈ 1.16 µM) | 1 (≈ 2.31 µM) | 1 (≈ 2.31 µM) | 25 | 0.06 (≈ 0.139 µM) | 22 | 75 | 23 | 0.06 (≈ 0.139 µM) |
| CC1(C)S[C@@H]2[C@H](NC(=O)[C@H](N)c3ccc(O)cc3)C(=O)N2[C@H]1C(=O)O [AMOXICILLIN] | 0.5 (≈ 1.37 µM) | 0.5 (≈ 1.37 µM) | 0.25 (≈ 0.684 µM) | 2 (≈ 5.47 µM) | 2 (≈ 5.47 µM) | 24 | 32 | 2 (≈ 5.47 µM) | 21 | 1 (≈ 2.74 µM) | 0.25 (≈ 0.684 µM) | 2 (≈ 5.47 µM) | 1 (≈ 2.74 µM) | 25 | 0.5 (≈ 1.37 µM) | 22 | – | 21 | 0.5 (≈ 1.37 µM) |
| O=C(O)c1cn(C2CC2)c2cc(N3CCNCC3)c(F)cc2c1=O [CIPROFLOXACIN] | 0.12 (≈ 0.362 µM) | 0.12 (≈ 0.362 µM) | – | – | – | 33 | 30 | 0.25 (≈ 0.754 µM) | 26 | 0.25 (≈ 0.754 µM) | – | 0.25 (≈ 0.754 µM) | 0.25 (≈ 0.754 µM) | 28 | 0.12 (≈ 0.362 µM) | 25 | – | 23 | 0.12 (≈ 0.362 µM) |
| NNC(=O)c1ccncc1 [ISONIAZID] | – | – | – | – | – | – | – | – | – | – | – | – | – | – | – | – | 100 | – | – |
| CCn1cc(C(=O)O)c(=O)c2ccc(C)nc21 [NALIDIXIC ACID] | 1 (≈ 4.31 µM) | 1 (≈ 4.31 µM) | 0.25 (≈ 1.08 µM) | 1 (≈ 4.31 µM) | 1 (≈ 4.31 µM) | 25 | 27 | 1 (≈ 4.31 µM) | 25 | 0.25 (≈ 1.08 µM) | 0.25 (≈ 1.08 µM) | 1 (≈ 4.31 µM) | 0.25 (≈ 1.08 µM) | 26 | 0.12 (≈ 0.517 µM) | 24 | 63 | 22 | 0.12 (≈ 0.517 µM) |
| CO[C@H]1/C=C/O[C@@]2(C)Oc3c(C)c(O)c4c(O)c(c(/C=N/N5CCN(C)CC5)c(O)c4c3C2=O)NC(=O)/C(C)=C\C=C\[C@H](C)[C@H](O)[C@@H](C)[C@@H](O)[C@@H](C)[C@H](OC(C)=O)[C@@H]1C [RIFAMPIN] | – | – | – | – | – | – | – | – | – | – | – | – | – | – | – | – | 98 | – | – |
